Data reported in patent publication US20040063783A1, “Nitroso diphenylamine derivatives” (priority 2003, published 2004).

Assays:
Format in all cases: biochemical
Human LDLs = test: Oxidation of human LDL in the presence of cupric ion (fluorescence), antioxidant effect; conditions: human LDL 120 μg/ml, 100 μM CuCl2; difference of fluorescence readings at 2 h and 24 h, 37° C; from 3 product concentrations
Protocol: Human LDLs dissolved in aqueous solution in the presence of cupric ion become spontaneously oxidized on their protein component, apolipoprotein B. This oxidation makes the particle fluorescent, which is exploited to measure a pharmacological effect.
The reactions and measurements are carried out in black 96-well plates, 10 μl of a solution of the test product dissolved in dimethyl sulfoxide are first mixed with 170 μl of a solution of human LDL at 120 μg/ml and 20 μl of 100 μM CuCl2. After stirring, the mixture is left to incubate for 2 hours at 37° C., and a first fluorescence reading is taken (excitation at 360 nm, reading at 460 nm). The mixture is then left to incubate for a further 22 hours, to take a second reading under the same conditions. The difference between the two values obtained is the measurement of the oxidation of the LDLs in solution. This difference is proportionately smaller the greater the antioxidant power of the test product. Probucol is used as reference product at 10 μM.
The concentrations which inhibit the oxidation by 50% (IC50) are produced from 3 product concentrations.

[1] = Spontaneous nitric oxide release: nitrites+nitrates titrated by colorimetry (Griess reagent, nitrate reductase); conditions: test product final concentration 150 μM; 4 hours at 37° C; pH 7.5 PBS buffer; optical density at 540 nm
Protocol: A solution of a compound of the invention spontaneously releases nitric oxide. The nitrite ions resulting therefrom are titrated by colorimetry by means of a specific reagent (Griess). To take account of any release of nitrate ions in addition to the nitrite ions, bacterial nitrate reductase is added to the reaction medium to allow the nitrate ions formed to be reduced.
The reactions and measurements are carried out in transparent 96-well plates. The test products are dissolved at the time of use to a concentration of 3 mM in dimethyl sulfoxide. 95 μl of a reagent containing nitrate reductase (0.18U/ml in 100 mM pH 7.5 PBS buffer, 210 μM β-NADPH, 5 μM FAD) and 5 μl of a solution of the test product (final concentration of 150 μM) are then added to each well. After stirring, the mixture is left to incubate for 4 hours at 37° C. The reaction is then quenched by addition of 100 μl of the Griess reagent (Sigma G4410). The reagent is allowed to act for 5 minutes at room temperature and the optical density is then read at 540. nm. This value is proportional to the concentration of nitrites+nitrates in the medium. A calibration range is made for each plate using NaNO2.
The results are expressed as […] (μM) of nitrites+nitrates released, in Table 5 below.

[2] = tested on: human low molecular weight lipoproteins; test: Prevention of cupric-ion oxidation of human low molecular weight lipoproteins (apoprotein B fluorescence), compounds of the formula II; conditions: lipoproteins oxidized with cupric ions for 24 hours at 37° C, fluorescence excitation 360 nm, emission 460 nm
Protocol: In the test carried out, the human low molecular weight lipoproteins are oxidized with cupric ions for 24 hours at 37° C. The B apoprotein bome by these lipoproteins becomes fluorescent on oxidation (excitation at 360 nm, emission at 460 nm). In the presence of the compounds of the formula II, a decrease in fluorescence is noted, which reflects the antioxidant power of the compounds of the formula II. The results are expressed in the form of a 50% inhibitory concentration (IC50).

SMILES	IC50 (Human LDLs) [µM]	Nitrates + nitrites [1] [µM]	IC50 [2] [µM]
COc1ccc(N(N=O)c2ccc(NC(=O)c3ccc(C#N)cc3)cc2)cc1 [Example 12]	2.2	22	–
COc1ccc(Nc2ccc(NC(=O)c3cccc([N+](=O)[O-])c3)cc2)cc1 [T=4-Me—O—, X=H, A=CO, Y=3-NO2—C6H4—]	–	–	6.5
COc1ccc(Nc2ccc(NC(=O)c3ccc[n+]([O-])c3)cc2)cc1	–	–	10.5
CC(=O)Nc1ccc(S(=O)(=O)Nc2ccc(Nc3ccccc3)cc2)cc1Cl [T=H, X=H, A=SO2, Y=3-Cl,4-CH3CONH—C6H3—]	–	–	13.4
COc1ccc(Nc2ccc(NC(=O)c3cc(C(C)(C)C)c(O)c(C(C)(C)C)c3)cc2)cc1	–	–	9.4
O=NN(c1ccccc1)c1ccc(NS(=O)(=O)c2cccnc2)cc1 [Example 6]	6.5	83	–
O=[N+]([O-])c1ccc(S(=O)(=O)Nc2ccc(Nc3ccccc3)cc2)cc1 [T=H, X=H, A=SO2, Y=4-NO2—C6H4]	–	–	4.3
COc1ccc(N(N=O)c2ccc(NC(=O)c3cccnc3)cc2)cc1 [Example 1, N-nitroso[4-methoxyphenyl][4-(3-pyridylcarbonylamino)phenyl]amine]	6.4	97	–
COc1ccc(N(N=O)c2ccc(NC(=O)c3cccc([N+](=O)[O-])c3)cc2)cc1 [Example 18]	3.7	71	–
COc1ccc(Nc2ccc(NC(=O)c3cc4cccc(OC)c4oc3=O)cc2)cc1	–	–	8.7
COc1ccc(Nc2ccc(NC(=O)c3cc([N+](=O)[O-])ccc3Oc3ccc(OC)cc3)cc2)cc1	–	–	8.8
COc1ccc(Nc2ccc(NC(=O)c3cccnc3)cc2)cc1 [T=4-MeO—, X=H, A=CO, Y=3-pyridyl]	–	–	3.8
CCn1nc(C)cc1C(=O)Nc1ccc(Nc2ccc(OC)cc2)cc1	–	–	8.3
COc1ccc(Nc2ccc(NC(=O)c3ccc(N(C)C)cc3)cc2)cc1 [T=4-MeO—, X=H, A=CO, Y=4-(CH3)2N—C6H4—]	–	–	11.2
COc1ccc(Nc2ccc(NC(=O)c3cccnc3Oc3ccc(Cl)cc3)cc2)cc1	–	–	3.6
CC(C)(Sc1cc(C(C)(C)C)c(O)c(C(C)(C)C)c1)Sc1cc(C(C)(C)C)c(O)c(C(C)(C)C)c1 [Probucol, reference compound]	6.4	–	–
CSc1ccc(Nc2ccc(NC(=O)c3ccccc3)cc2)cc1 [T=4-MeS—, X=H, A=CO, Y=C6H5]	–	–	1.8
O=NN(c1ccccc1)c1ccc(NC(=O)Nc2ccccc2)cc1 [Example 8]	5.4	44	–
COc1ccc(Nc2ccc(NC(=O)c3cccc(C(F)(F)F)c3)cc2)cc1 [T=4-MeO—, X=H, A=CO, Y=3-CF3—C6H4—]	–	–	6.4
O=NN(c1ccccc1)c1ccc(NS(=O)(=O)c2ccccc2)cc1 [Example 45]	3.2	62	–
O=NN(c1ccccc1)c1ccc(NC(=O)c2cccnc2)cc1 [Example 57]	8.9	109	–
N#Cc1ccc(S(=O)(=O)Nc2ccc(Nc3ccccc3)cc2)cc1 [T=H, X=H, A=SO2, Y=4-CN—C6H4]	–	–	11.8

SMILES	IC50 (Human LDLs) [µM]	Nitrates + nitrites [1] [µM]	IC50 [2] [µM]
CC(C)(C)c1cc(CC(=O)Nc2ccc(Nc3ccccc3)cc2)ccc1O	–	–	4.8
COc1ccc(N(N=O)c2ccc(NC(=O)OCc3ccccc3)cc2)cc1 [Example 253, Benzyl 4-[1-(4-methoxyphenyl)-2-oxohydrazino]phenylcarbamate]	3.6	45	–
COc1ccc(Nc2ccc(NS(=O)(=O)c3cccnc3)cc2)cc1 [T=4-Me—O—, X=H, A=SO2, Y=3-pyridyl]	–	–	7.9
COc1ccc(N(N=O)c2ccc(NC(=O)c3cncnc3)cc2)cc1 [Example 4]	5.4	84	–
CC(=O)Nc1ccc(S(=O)(=O)Nc2ccc(Nc3ccccc3)cc2)cc1 [T=H, X=H, A=SO2, Y=4-CH3CONH—C6H4—]	–	–	12.3
COc1ccc(Nc2ccc(NC(=O)OCc3ccccc3)cc2)cc1 [253 (formula II), Benzyl 4-[(4-methoxyphenyl)amino]phenylcarbamate]	–	–	2
O=S(=O)(Nc1ccc(Nc2ccccc2)cc1)c1cccs1 [T=H, X=H, A=SO2, Y=2-thienyl]	–	–	3.3
COc1ccc(Nc2ccc(NS(=O)(=O)c3cccc4cccnc34)cc2)cc1	–	–	8.7
COc1ccc(Nc2ccc(NC(=O)/C=C/c3ccccc3[N+](=O)[O-])cc2)cc1	–	–	13.3
COc1ccc(Nc2ccc(NC(=O)c3ccco3)cc2)cc1 [T=4-MeO—, X=H, A=CO, Y=2-furyl]	–	–	8.4
COc1ccc(Nc2ccc(NC(=O)c3cnc(Cl)nc3)cc2)cc1	–	–	2.6
COc1ccc(Nc2ccc(NS(=O)(=O)c3ccc(OC)cc3)cc2)cc1 [T=4-MeO—, X=H, A=SO2, Y=4-MeO—C6H4—]	–	–	5
COc1ccc(Nc2ccc(NC(=O)c3cncnc3)cc2)cc1 [T=4-Me—O—, X=H, A=CO, Y=5-pyrimidyl, 4-methoxy4′-[5-pyrimidinylcarbonylamino]diphenylamine]	–	–	5.2
COc1ccc(Nc2ccc(NC(=O)Cc3cc(C(C)(C)C)c(O)c(C(C)(C)C)c3)cc2)cc1	–	–	2.8
COc1ccc(N(N=O)c2ccc(NS(=O)(=O)c3ccc(OC)cc3)cc2)cc1 [Example 86]	3.8	79	–
O=S(=O)(Nc1ccc(Nc2ccccc2)cc1)c1cccc(F)c1 [T=H, X=H, A=SO2, Y=3-F—C6H4—]	–	–	3.7
O=S(=O)(/C=C/c1ccccc1)Nc1ccc(Nc2ccccc2)cc1	–	–	12.2
COc1ccc(Nc2ccc(NC(=O)c3cc(Cl)cnc3Cl)cc2)cc1	–	–	5.4
O=S(=O)(Nc1ccc(Nc2ccccc2)cc1)c1cccnc1 [T=H, X=H, A=SO2, Y=3-pyridyl]	–	–	7.4
COc1ccc(Nc2ccc(NC(=O)c3sc(S(C)(=O)=O)c4c3CCC=C4)cc2)cc1	–	–	7.3
CCCCCCc1ccc(C(=O)Nc2ccc(Nc3ccc(OC)cc3)cc2)s1	–	–	11.1
